Reference: article PMC10607100, “Anticancer and Antiphytopathogenic Activity of Fluorinated Isatins and Their Water-Soluble Hydrazone Derivatives” (International Journal of Molecular Sciences, 2023)
Where two headings read alike, the source gives them in different places.

How the values were obtained:
[1] = test system: Xanthomonas campestris B-610; assay: Agar-well diffusion, bactericidal activity; assay type: cell-based; conditions: Xanthomonas campestris
Summary of the method: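 Agar-well diffusion on GYCa agar (pH 7.2–7.4) seeded with bacterial suspension; 150 μL compound solution placed in 6-mm wells. Inhibition zone width measured after 36–40 h incubation.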

[2] = test system: Phytophthora cactorum VKM F-985; assay: Mycelial radial growth inhibition; assay type: cell-based; conditions: for inhibition of growth at 3 µM: 3 nmol/mL; for inhibition of growth at 3 µM / inhibition of growth at 7 µM / inhibition of growth / inhibition of growth at 40 µM: read-out: Inhibition value, I (%); for inhibition of growth at 7 µM: 7 nmol/mL; for inhibition of growth: 27 nmol/mL; for inhibition of growth at 40 µM: 40 nmol/mL
Summary of the method: (§1)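 Compounds mixed into molten GPY agar at various concentrations; centre inoculated with a 5-mm mycelial plug from 10-day cultures and incubated at 27 °C. Colony diameter compared with untreated control until control plate was covered (usually 12 days); ≥4 replicates in two experiments.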

[3] = test system: Fusarium oxysporum IBPPM 543; assay: Mycelial radial growth inhibition; assay type: cell-based; conditions: Fusarium oxysporum; for inhibition of growth at 1 µM: 1 nmol/mL; for inhibition of growth at 1 µM / inhibition of growth at 5 µM / inhibition of growth at 20 µM / inhibition of growth at 40 µM: read-out: Inhibition value, I (%); for inhibition of growth at 5 µM: 5 nmol/mL; for inhibition of growth at 20 µM: 20 nmol/mL; for inhibition of growth at 40 µM: 40 nmol/mL
Summary of the method: as §1

[4] = test system: Pectobacterium carotovorum subsp. carotovorum MI; assay: Agar-well diffusion, bactericidal activity; assay type: cell-based; conditions: Pectobacterium carotovorum, 2 mM/L
Summary of the method: (§2)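 Bacteria spread on agar (BP medium; GYCa for X. campestris; pH 7.2–7.4) with 6-mm wells, each receiving 150 μL compound solution. Cultures grown at 28 °C; growth-inhibition zone width measured after 36–40 h.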

[5] = test system: Pectobacterium atrosepticum 1043; assay: Agar-well diffusion, bactericidal activity; assay type: cell-based; conditions: Pectobacterium atrosepticum, 1043, 2 mM/L
Summary of the method: as §2

[6] = test system: Pseudomonas fluorescens EL-2.1; assay: Agar-well diffusion, bactericidal activity; assay type: cell-based; conditions: Pseudomonas fluorescens, EL2.1, 2 mM/L
Summary of the method: as §2

Micrococcus luteus B-109 = assay: Agar-well diffusion, bactericidal activity; assay type: cell-based; conditions: Micrococcus luteus, B109, 2 mM/L; average of 3 experiments; read-out: width of the inhibition zone (mm), M. luteus
Summary of the method: as §2

[7] = test system: five representative phytopathogens; assay: Agar-well diffusion, bactericidal activity over the panel of phytopathogens; assay type: cell-based; conditions: 36 h, 2 mM solutions; dependent on the test system used; read-out: inhibition zone width (mm), range over the test systems
Summary of the method: as §2

[8] = Phytophthora cactorum, 72 h, age of the fungus 3 days
[9] = Phytophthora cactorum, 120 h, age of the fungus 5 days
[10] = Phytophthora cactorum, 168 h, age of the fungus 7 days
[11] = Phytophthora cactorum, 216 h, age of the fungus 9 days
[12] = IBPPM543, 72 h, age of the fungus 3 days
[13] = IBPPM543, 120 h, age of the fungus 5 days
[14] = IBPPM543, 168 h, age of the fungus 7 days
[15] = IBPPM543, 216 h, age of the fungus 9 days
[16] = Table S3, read-out: Inhibition zone width (mm), not less

## O=C(C[n+]1ccccc1)NN=C1C(=O)N(Cc2cccc(C(F)(F)F)c2)c2ccc(F)cc21.[Cl-] [Compound 5c, 1-(2-(2-(5-Fluoro-2-oxo-1-(3-(trifluoromethyl)benzyl)indolin-3-ylidene)hydrazinyl)-2-oxoethyl)pyridin-1-ium chloride]
[1]; B610, 2 mM/L, average of 3 experiments, read-out: width of the inhibition zone (mm), X. campestris
  zone of inhibition at 2000 µM: 7 mm
[1]; B610, Table S3, 2 mM/L, read-out: Inhibition zone width (mm), not less
  zone of inhibition at 2000 µM: ≥ 7 mm
[2]; 5 days of growth
  antagonistic effect superior to that of N-cetylpyridinium chloride: 2.3 times
[2]; [8]
  inhibition of growth at 3 µM: 7%
  inhibition of growth at 7 µM: 13%
  inhibition of growth: 36%
  inhibition of growth at 40 µM: 55%
[2]; Phytophthora cactorum, 120 h, day 5, read-out: EC50, µg/mL at Day 5, P. cactorum
  EC50: 15 µg/mL
[2]; [9]
  inhibition of growth at 3 µM: 8%
  inhibition of growth at 7 µM: 21%
  inhibition of growth: 38%
  inhibition of growth at 40 µM: 64%
[2]; [10]
  inhibition of growth at 3 µM: 4%
  inhibition of growth at 7 µM: 14%
  inhibition of growth: 29%
  inhibition of growth at 40 µM: 42%
[2]; [11]
  inhibition of growth at 3 µM: 3%
  inhibition of growth at 7 µM: 12%
  inhibition of growth: 18%
  inhibition of growth at 40 µM: 36%
[2]; day 5
  EC50, µg/mL at Day 5, P. cactorum: 15.40 µg/mL
[3]; [12]
  inhibition of growth at 1 µM: 22%
  inhibition of growth at 5 µM: 40%
  inhibition of growth at 20 µM: 49%
  inhibition of growth at 40 µM: 57%
[3]; IBPPM543, 120 h, day 5, read-out: EC50, µg/mL at Day 5, F. oxysporum
  EC50: 14.9 µg/mL
[3]; [13]
  inhibition of growth at 1 µM: 19%
  inhibition of growth at 5 µM: 36%
  inhibition of growth at 20 µM: 45%
  inhibition of growth at 40 µM: 55%
[3]; [14]
  inhibition of growth at 1 µM: 13%
  inhibition of growth at 5 µM: 28%
  inhibition of growth at 20 µM: 35%
  inhibition of growth at 40 µM: 52%
[3]; [15]
  inhibition of growth at 1 µM: 3%
  inhibition of growth at 20 µM: 21%
  inhibition of growth at 40 µM: 51%
[4]; average of 3 experiments, read-out: width of the inhibition zone (mm), P. carotovorum subsp. carotovorum
  zone of inhibition at 2000 µM: 5 mm
[4]; [16]
  zone of inhibition at 2000 µM: ≥ 5 mm
[5]; average of 3 experiments, read-out: width of the inhibition zone (mm), P. atrosepticum
  zone of inhibition at 2000 µM: 5 mm
[5]; [16]
  zone of inhibition at 2000 µM: ≥ 5 mm
[6]; average of 3 experiments, read-out: width of the inhibition zone (mm), Ps. fluorescens
  zone of inhibition at 2000 µM: 5 mm
[6]; [16]
  zone of inhibition at 2000 µM: ≥ 5 mm
Micrococcus luteus B-109
  zone of inhibition at 2000 µM: 4 mm
other
  melting point: 172 to 173 °C
[7]
  zone of inhibition at 2000 µM: 4 to 7 mm
